From patent publication US8119681B2, “2-[1-phenyl-5-hydroxy or methoxy-4alpha-methyl-hexahydrocyclopenta [ƒ]indazole-5-YL]ethyl phenyl derivatives as glucocorticoid receptor ligands” (Merck Sharp & Dohme Corp., priority 2006, dated 2012)

Tests used:
[1] = biological target: T1, human GR (Homo sapiens, UniProt P04150); test: Transrepression Assay (GITAR), TNFα-β-lactamase reporter gene in U937 cells; format: cell-based; design: U937 cells contain an endogenous glucocorticoid receptor (GR); endogenous in cells; host or cells: U937 cells stably transfected with the TNF-α promoter/β-lactamase reporter only; details: for EC50: IP = inflection point; for GITAR > GRAMM % SEP: separation of GITAR Emax over GRAMMER Emax; for Emax: U-937
T1 sequence (P04150 1-777): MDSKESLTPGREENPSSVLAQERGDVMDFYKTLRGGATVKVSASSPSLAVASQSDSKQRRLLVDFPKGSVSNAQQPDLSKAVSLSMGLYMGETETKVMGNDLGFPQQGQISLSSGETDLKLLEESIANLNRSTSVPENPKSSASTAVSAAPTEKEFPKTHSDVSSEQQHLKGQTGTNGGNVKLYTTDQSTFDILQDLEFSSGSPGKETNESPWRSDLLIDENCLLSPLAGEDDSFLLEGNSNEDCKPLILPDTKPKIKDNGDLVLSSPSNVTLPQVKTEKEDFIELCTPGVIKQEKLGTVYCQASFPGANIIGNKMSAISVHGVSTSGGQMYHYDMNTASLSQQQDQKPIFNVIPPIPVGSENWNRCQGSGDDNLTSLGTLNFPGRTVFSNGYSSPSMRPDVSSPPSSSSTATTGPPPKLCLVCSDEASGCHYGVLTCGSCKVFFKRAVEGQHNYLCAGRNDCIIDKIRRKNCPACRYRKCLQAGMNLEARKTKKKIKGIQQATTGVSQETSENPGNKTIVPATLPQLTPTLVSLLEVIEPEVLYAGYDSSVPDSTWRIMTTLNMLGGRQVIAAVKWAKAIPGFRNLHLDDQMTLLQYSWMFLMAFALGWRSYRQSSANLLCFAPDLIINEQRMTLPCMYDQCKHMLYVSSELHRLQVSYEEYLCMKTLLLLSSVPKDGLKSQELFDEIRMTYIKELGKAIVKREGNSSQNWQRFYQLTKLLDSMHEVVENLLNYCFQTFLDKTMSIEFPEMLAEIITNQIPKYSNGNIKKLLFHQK
Procedure, shortened: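 Reporter readout used CCF2-AM loading for 70–90 min at room temperature after overnight (~18 h, 37 °C) PMA (5 ng/ml final) and LPS (100 ng/ml final) stimulation of compound-treated (30–45 min) TNFα-β-lactamase U937 cells expressing native GR. Activity was normalised to 100 nM dexamethasone repression.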

[2] = biological target: T1, human GR; test: Trans-Activation Modulation of Glucocorticoid Receptor (GRAMMER), MMTV-LUC reporter gene; format: cell-based; design: endogenous in cells; details: for Emax: A549; for EC50: A549 cells, IP = inflection point
Description: Trans-Activation Modulation of Glucocorticoid Receptor (GRAMMER)
This assay assesses the ability of test compounds to control transcription from the MMTV-LUC reporter gene in lung adenocarcinoma A549 cells or HeLa cells, a human […] cell line that naturally expresses the human GR. The assay measures induction of a modified MMTV LTR/promoter linked to the LUC reporter gene.
The routine transient assay consists of plating 7,000-25,000 cells/well of a white, clear-bottom 96-well plate. Alternatively, 384-well plates can be used at a cell concentration of 10,000/well. The media that the cells are plated in is “exponential growth medium” which consists of phenol red-free RPMI1640 containing 10% FBS, 4 mM L-glutamine, 20 mM HEPES, 10 ug/mL human insulin, and 20 ug/mL gentamicin. Incubator conditions are 37° C. and 5% CO2. The transfection is done in batch mode. The cells are trypsinized and counted to the right cell number in the proper amount of fresh media. It is then gently mixed with the FuGene6/DNA mix and plated onto the 96 or 384-well plate, all the wells receive 100 uL or 40 uL, respectively, of medium+lipid/DNA complex then incubated 37° C. overnight. The transfection cocktail consists of serum-free OptiMEM, FuGene6 reagent and DNA. The manufacturer's (Roche Biochemical) protocol for cocktail setup is as follows: The lipid to DNA ratio is approximately 2.5:1 and the incubation time is 20 min at room temperature. Sixteen to 24 hours after transfection, the cells are treated with dexamethasone to a final concentration of 10 nM as well as the compound of interest, such that final DMSO (vehicle) concentration is equal to or less than 1%. Each plate also contains samples that are treated with 10 nM dexamethasone alone, which is used as the 100% activity control. The cells are exposed to the compounds for 24 hours. After 24 hours, the cells are lysed by a Promega cell culture lysis buffer for approximately 30 min and then the luciferase activity in the extracts is assayed in the 96-well format luminometer. In 384-well format, Steady-Glo (Promega) or Steady-Lite (PerkinElmer) can be used by adding an equal volume of reagent to the media present in each well. Activity induced by 10 nM dexamethasone alone is set at 100% activity. Antagonist activity is calculated by determining the decrease in dexamethasone-induced activity in response to compound treatment relative to samples that were treated with dexamethasone alone. […] This transactivation assay can be performed in an agonist and antagonist mode to identify these different activities. […]

[3] = Table 1, U937 cells, read-out: Transrepression U937 Cells GITAR IP
[4] = 100 nM dexamethasone = 100% activity, read-out: maximal activity in the transrepression assay
[5] = Table 1, U937 cells, activity repressed by 100 nM dexamethasone = 100%, read-out: Transrepression U937 Cells GITAR Emax (%)
[6] = read-out: Transactivation A549 Cells GRAMMER Emax (%)
[7] = Table 1, read-out: Transactivation A549 Cells GRAMMER IP

| SMILES | EC50 [1, 3] | GITAR > GRAMM % SEP ([1]; Table 1) | Emax [1, 4] | Emax [1, 5] | Emax [2, 6] | EC50 [2, 7] | EC50 ([1]; Table 2, U937 cells, read-out: Transactiviation U937 Cells GITAR IP) | GITAR > GRAMM % SEP ([1]; Table 2) | Emax ([1]; Table 2, U937 cells, activity repressed by 100 nM dexamethasone = 100%, read-out: Transactiviation U937 Cells GITAR Emax (%)) | Emax ([2]; read-out: Transactiviation A549 Cells GRAMMER Emax (%)) | EC50 ([2]; Table 2, read-out: Transactiviation A549 Cells GRAMMER IP) |
| --- | --- | --- | --- | --- | --- | --- | --- | --- | --- | --- | --- |
| C[C@]12Cc3cnn(-c4ccccc4)c3C=C1CC[C@@]2(O)CCc1ccccc1C(=O)NC1CC1 [Example 42, N-cyclopropyl-2-{2-[(4αS,5R)-5-hydroxy-4α-methyl-1-phenyl-1,4,4α,5,6,7-hexahydrocyclopenta[f]indazol-5-yl]ethyl}benzamide] | 0.122 µM | 13% | 5 to 100% | 64% | 51% | 0.074 µM |  |  |  |  |  |
| C[C@]12Cc3cnn(-c4ccccc4)c3C=C1CC[C@@]2(O)CCc1ccccc1C(N)=O [Example 43, 2-{2-[(4αS,5R)-5-hydroxy-4α-methyl-1-phenyl-1,4,4α,5,6,7-hexahydrocyclopenta[f]indazol-5-yl]ethyl}benzamide] | 0.098 µM | 9% | 5 to 100% | 68% | 59% | 0.111 µM |  |  |  |  |  |
| C=C(C)CNC(=O)c1c(F)cccc1CC[C@]1(O)CCC2=Cc3c(cnn3-c3ccc(F)cc3)C[C@@]21C [Example 44, 2-fluoro-6-{2-[(4αS,5R)-1-(4-fluorophenyl)-5-hydroxy-4α-methyl-1,4,4α,5,6,7-hexahydrocyclopenta[f]indazol-5-yl]ethyl}-N-(2-methylprop-2-en-1-yl)benzamide] | 0.119 µM | 43% | 5 to 100% | 67% | 24% | 0.095 µM |  |  |  |  |  |
| C[C@H](CNC(=O)c1ccccc1CC[C@]1(O)CCC2=Cc3c(cnn3-c3ccc(F)cc3)C[C@@]21C)C(F)(F)F [Example 45, 2-{2-[(4αS,5R)-1-(4-fluorophenyl)-5-hydroxy-4α-methyl-1,4,4α,5,6,7-hexahydrocyclopenta[f]indazol-5-yl]ethyl}-N-[(2R)-3,3,3-trifluoro-2-methylpropyl]benzamide] | 0.22 µM | 52% | 5 to 100% | 70% | 18% | 0.183 µM |  |  |  |  |  |
| C[C@]12Cc3cnn(-c4ccc(F)cc4)c3C=C1CC[C@@]2(O)CCc1ccc(F)cc1 [Example 46 WO 2004/075840 A2, reference compound] |  |  |  |  |  |  | 0.596 µM | 44% | 71% | 26% | 0.571 µM |
| C[C@]12Cc3cnn(-c4ccc(F)cc4)c3C=C1CC[C@@]2(O)CCc1ccccc1C(=O)N1CCCCC1 [Example 46, (4αS,5R)-1-(4-fluorophenyl)-4α-methyl-5-{2-[2-(piperidin-1-ylcarbonyl)phenyl]ethyl}-1,4,4α,5,6,7-hexahydrocyclopenta[f]indazol-5-ol] | 0.248 µM | 17% | 5 to 100% | 70% | 54% | 0.176 µM |  |  |  |  |  |
| C[C@]12Cc3cnn(-c4ccc(F)cc4)c3C=C1CC[C@@]2(O)CCc1ccccc1C(=O)N1CCCC1 [Example 47, (4αS,5R)-1-(4-fluorophenyl)-4α-methyl-5-{2-[2-(pyrrolidin-1-ylcarbonyl)phenyl]ethyl}-1,4,4α,5,6,7-hexahydrocyclopenta[f]indazol-5-ol] | 0.205 µM | 12% | 5 to 100% | 71% | 59% | 0.196 µM |  |  |  |  |  |
| CC(C)[C@@H](C)NC(=O)c1c(F)cccc1CC[C@]1(O)CCC2=Cc3c(cnn3-c3ccc(F)cc3)C[C@@]21C [Example 48, N-[(1R)-1,2-dimethylpropyl]-2-fluoro-6-{2-[(4αS,5R)-1-(4-fluorophenyl)-5-hydroxy-4α-methyl-1,4,4α,5,6,7-hexahydrocyclopenta[f]indazol-5-yl]ethyl}benzamide] | 0.198 µM | 59% | 5 to 100% | 72% | 13% | 0.094 µM |  |  |  |  |  |
| CCCNC(=O)c1c(F)cccc1CC[C@]1(O)CCC2=Cc3c(cnn3-c3ccc(F)cc3)C[C@@]21C [Example 49, 2-fluoro-6-{2-[(4αS,5R)-1-(4-fluorophenyl)-5-hydroxy-4α-methyl-1,4,4α,5,6,7-hexahydrocyclopenta[f]indazol-5-yl]ethyl}-N-propylbenzamide] | 0.03 µM | 47% | 5 to 100% | 72% | 25% | 0.026 µM |  |  |  |  |  |
| CCNC(=O)c1ccccc1CC[C@]1(O)CCC2=Cc3c(cnn3-c3ccc(F)c(F)c3)C[C@@]21C [Example 51, 2-{2-[(4αS,5R)-1-(3,4-difluorophenyl)-5-hydroxy-4α-methyl-1,4,4α,5,6,7-hexahydrocyclopenta[f]indazol-5-yl]ethyl}-N-ethylbenzamide] | 0.193 µM | 42% | 5 to 100% | 73% | 30% | 0.164 µM |  |  |  |  |  |
| COC(=O)C(C)(C)NC(=O)c1ccccc1CC[C@]1(O)CCC2=Cc3c(cnn3-c3ccc(F)cc3)C[C@@]21C [Example 52, methyl N-(2-{2-[(4αS,5R)-1-(4-fluorophenyl)-5-hydroxy-4α-methyl-1,4,4α,5,6,7-hexahydrocyclopenta[f]indazol-5-yl]ethyl}benzoyl)-2-methylalaninate] | 0.154 µM | 29% | 5 to 100% | 74% | 45% | 0.021 µM |  |  |  |  |  |
| CC(C)(C)CNC(=O)c1c(F)cccc1CC[C@]1(O)CCC2=Cc3c(cnn3-c3ccc(F)cc3)C[C@@]21C [Example 55, N-(2,2-dimethylpropyl)-2-fluoro-6-{2-[(4αS,5R)-1-(4-fluorophenyl)-5-hydroxy-4α-methyl-1,4,4α,5,6,7-hexahydrocyclopenta[f]indazol-5-yl]ethyl}benzamide] | 0.187 µM | 53% | 5 to 100% | 76% | 23% | 0.173 µM |  |  |  |  |  |
| C=CCNC(=O)c1c(F)cccc1CC[C@]1(O)CCC2=Cc3c(cnn3-c3ccc(F)cc3)C[C@@]21C [Example 57, N-allyl-2-fluoro-6-{2-[(4αS,5R)-1-(4-fluorophenyl)-5-hydroxy-4α-methyl-1,4,4α,5,6,7-hexahydrocyclopenta[f]indazol-5-yl]ethyl}benzamide] | 0.03 µM | 40% | 5 to 100% | 77% | 37% | 0.024 µM |  |  |  |  |  |
